Measurements taken from patent US10112913B2, “Substituted [1,2,4]triazole and imidazole compounds as fungicides” (BASF SE, priority 2014, dated 2018).

System: Fusarium culmorum
Assay: Activity against root rot caused by Fusarium culmorum (Fusacu), microtiter test
Format: cell-based
Conditions: 31 ppm; Fusarium culmorum spore suspension; 18° C.; 405 nm, 7 days after inoculation

CC(C)CC#Cc1ccc(C(O)(Cn2cncn2)C(C)(C)C)cc1 (stereo not shown) [I.C-2]
growth (relative growth of the pathogen vs active compound-free control = 100%): 0%
